The results in this text go back to patent US10239851B2 (priority 2014, dated 2019).

Where a name gives a salt, the structure may show the parent alone.

The nature of series [1]: In vitro dissociation of the water soluble taxane derivatives in blood plasma of rat. The class given is in vitro ADME, SD rats. The settings on record: 37° C. The procedure: The obtained water soluble taxane derivatives were formulated as 0.2 mg/ml aqueous solutions. […] After 2 min, 5 min and 10 min of incubation, 0.2 ml of solutions were respectively taken from each of the samples, and added to acetonitrile (0.4 ml) cooled to −20° C. for precipitation of protein.

A short description of series [2]: In vitro dissociation of the water soluble taxane derivatives in blood plasma of rabbit. The class given is in vitro ADME, New Zealand white rabbits. The settings on record: 37° C. The procedure: The obtained water soluble taxane derivatives were formulated as 0.2 mg/ml aqueous solutions. […] After 5 min, 20 min and 60 min of incubation, 0.2 ml of solutions were respectively taken from each of the samples, and added to acetonitrile (0.4 ml) cooled to −20° C. for precipitation of protein.

In series [3] the test system is human ovarian cancer SK-OV-3. The settings on record: 24 mg/kg (paclitaxel 16 mg/kg) D0-4 IV; for Tumor volume (D0): D0, at grouping; for Tumor inhibitory percent (%) D22: P=0.000 compared to the control.
From the text: Test of the inhibitory activity of the water soluble paclitaxel derivatives on subcutaneously xenografted tumor of human ovarian cancer SK-OV-3 in nude mice: evaluating and comparing the inhibitory activity of the water soluble paclitaxel derivatives of the present invention, paclitaxel and Abraxane® on subcutaneously xenografted tumor of human ovarian cancer SK-OV-3 in nude mice.
Human ovarian cancer SK-OV-3 cells were subcutaneously inoculated to nude mice. After the tumor volume reached 100-150 mm^3, the animals were randomly divided into groups (D0), and administered with the water soluble paclitaxel derivatives of the present invention, paclitaxel, and Abraxane®, respectively once per day for 5 days. The tumor volume was measured 2-3 times per week, the animals were weighed and the data were recorded until day 22 (D22) after grouping.
The tumor volume (V) was calculated according to the equation: V=½×a×b^2, wherein a and b represent the length and the width, respectively.
T/C (%)=(T−T0)/(C−C0)×100, wherein T and C represent the tumor volume at the end of the experiment; and T0 and C0 represent the tumor volume at the beginning of the experiment.

Take “2′-O-[5-(N-methyl-N-ethyl)amino-2(R)-2-difluoroethylvaleryl]docetaxel hydrochloride [Compound 12]”: the dissociation percent in series [1] (2 min) is recorded as 43.6%; in series [1] (5 min), 75.6%; in series [1] (10 min), 89.6%; in series [2] (5 min), 35.2%; in series [2] (20 min), 61.3%; in series [2] (60 min), 73.2%.
As for `CC(=O)OC1C(=O)C2(C)C(O)CC3OCC3(OC(C)=O)C2C(OC(=O)c2ccccc2)C2(O)CC(OC(=O)C(OC(=O)C(CCCCN(C)C)C(F)F)C(NC(=O)c3ccccc3)c3ccccc3)C(C)=C1C2(C)C.O=S(=O)(O)O` [Compound 22, 2′-O-[6-(N,N-dimethyl)amino-2(S)-2-difluoromethylhexanoyl]paclitaxel sulfate], in series [3], the “Tumor volume (D0)” value is 133.8 ± 12.2 mm^3, the “Weight change (%) D4” value was −11.6%, the “T/C (%) D22” value is on record as −14% and the “Tumor volume (D22)” value was found to be 79.8 ± 12.8 mm^3. The “Tumor inhibitory percent (%) D22” value in series [3] is reported as 36%.
With `CCN(CC)CC[C@H](F)C(=O)O[C@@H](C(=O)O[C@H]1C[C@@]2(O)[C@@H](OC(=O)c3ccccc3)[C@@H]3[C@]4(OC(C)=O)CO[C@@H]4C[C@H](O)[C@@]3(C)C(=O)[C@H](OC(C)=O)C(=C1C)C2(C)C)[C@@H](NC(=O)c1ccccc1)c1ccccc1.O=C(O)/C=C/C(=O)O` [Compound 17, 2′-O-[4-(N,N-diethyl)amino-2(S)-fluorobutyryl]paclitaxel fumarate], in series [3], the “Tumor volume (D0)” value was 133.6 ± 9.4 mm^3, the “Weight change (%) D4” value was −8.1%, the “T/C (%) D22” value is listed as −44% and the “Tumor volume (D22)” value turned out to be 55.7 ± 10.1 mm^3. Moreover, the “Tumor inhibitory percent (%) D22” value in series [3] is 114%.
Take `CO[C@H]1C(=O)[C@]2(C)[C@@H](OC)C[C@H]3OC[C@@]3(OC(C)=O)[C@H]2[C@H](OC(=O)c2ccccc2)[C@]2(O)C[C@H](OC(=O)[C@H](OC(=O)[C@@H](F)CCN(C)C)[C@@H](NC(=O)OC(C)(C)C)c3ccccc3)C(C)=C1C2(C)C.Cl` [Compound 08, 2′-O-[4-(N,N-dimethyl)amino-2(S)-fluorobutyryl]cabazitaxel hydrochloride]: the dissociation percent stood at 47.6% in series [1] (2 min); 87.6% in series [1] (5 min); 100% in series [1] (10 min); 89.9% in series [2] (5 min); 93.2% in series [2] (20 min); 100% in series [2] (60 min).
For `CC(=O)O[C@H]1C(=O)[C@@]2(C)[C@H]([C@H](OC(=O)c3ccccc3)[C@]3(O)C[C@H](OC(=O)[C@H](OC(=O)C(F)CCN(C)C(C)C)[C@@H](NC(=O)c4ccccc4)c4ccccc4)C(C)=C1C3(C)C)[C@]1(OC(C)=O)CO[C@@H]1C[C@@H]2O.Cl` (stereo partly drawn) [Compound 18, 2′-O-[4-(N-methyl-N-isopropyl)amino-2(R,S)-fluorobutyryl]paclitaxel hydrochloride], in series [3], the “Tumor volume (D0)” value was 127.9 ± 11.4 mm^3, the “Weight change (%) D4” value is −10.3%, the “T/C (%) D22” value is −38% and the “Tumor volume (D22)” value is 60.4 ± 12.3 mm^3. In addition, the “Tumor inhibitory percent (%) D22” value in series [3] is 98%.
In the case of `CC(=O)O[C@H]1C(=O)[C@@]2(C)[C@H]([C@H](OC(=O)c3ccccc3)[C@]3(O)C[C@H](OC(=O)[C@H](OC(=O)C(CCN(C)C)C(F)F)[C@@H](NC(=O)c4ccccc4)c4ccccc4)C(C)=C1C3(C)C)[C@]1(OC(C)=O)CO[C@@H]1C[C@@H]2O.Cl` (stereo partly drawn) [Compound 20, 2′-O-[4-(N,N-dimethyl)amino-2(R,S)-2-difluoromethylbutyryl]paclitaxel hydrochloride], in series [3], the “Tumor volume (D0)” value turned out to be 133.4 ± 12.6 mm^3, the “Weight change (%) D4” value was −8.4%, the “T/C (%) D22” value is given as −35% and the “Tumor volume (D22)” value was 61.2 ± 13.5 mm^3. In addition, the “Tumor inhibitory percent (%) D22” value in series [3] was found to be 91%.
`CCN(CC)CC[C@](C)(C(=O)O[C@@H](C(=O)O[C@H]1C[C@@]2(O)[C@@H](OC(=O)c3ccccc3)[C@@H]3[C@]4(OC(C)=O)CO[C@@H]4C[C@H](OC)[C@@]3(C)C(=O)[C@H](OC)C(=C1C)C2(C)C)[C@@H](NC(=O)OC(C)(C)C)c1ccccc1)C(F)(F)F.CS(=O)(=O)O` [Compound 11, 2′-O-[4-(N,N-diethyl)amino-2-methyl-2(R)-2-trifluoromethylbutyryl]cabazitaxel methanesulfonate]: the dissociation percent is listed as 52.3% in series [1] (2 min); 89.6% in series [1] (5 min); 97.2% in series [1] (10 min); 56.2% in series [2] (5 min); 80.5% in series [2] (20 min); 92.1% in series [2] (60 min).
For the compound `COC1C(=O)C2(C)C(OC)CC3OCC3(OC(C)=O)C2C(OC(=O)c2ccccc2)C2(O)CC(OC(=O)C(OC(=O)C(F)CCN(C)C)C(NC(=O)OC(C)(C)C)c3ccccc3)C(C)=C1C2(C)C.Cl` [Compound 09, 2′-O-[4-(N,N-dimethyl)amino-2(R,S)-fluorobutyryl]cabazitaxel hydrochloride], the dissociation percent in series [1] (2 min) amounted to 47.8%; in series [1] (5 min) it was 89.1%; in series [1] (10 min) it was 100%; in series [2] (5 min), 83.2%; in series [2] (20 min) it was 97.1%; in series [2] (60 min), 100%.
On to `CC(=O)O[C@H]1C(=O)[C@@]2(C)[C@H]([C@H](OC(=O)c3ccccc3)[C@]3(O)C[C@H](OC(=O)[C@H](OC(=O)[C@H](F)CCCN(C)C)[C@@H](NC(=O)c4ccccc4)c4ccccc4)C(C)=C1C3(C)C)[C@]1(OC(C)=O)CO[C@@H]1C[C@@H]2O.O=C(O)/C=C\C(=O)O` [Compound 21, 2′-O-[5-(N,N-dimethyl)amino-2(R)-fluorovaleryl]paclitaxel maleate], for which, in series [3], the “Tumor volume (D0)” value is reported as 135.8 ± 14.7 mm^3, the “Weight change (%) D4” value is listed as −9.4%, the “T/C (%) D22” value is recorded as −23% and the “Tumor volume (D22)” value was 70.8 ± 16.8 mm^3. Besides, the “Tumor inhibitory percent (%) D22” value in series [3] worked out at 60%.
Regarding `CC(=O)OC1C(=O)C2(C)C(O)CC3OCC3(OC(C)=O)C2C(OC(=O)c2ccccc2)C2(O)CC(OC(=O)C(OC(=O)C(CCN(C)C)C(F)(F)F)C(NC(=O)c3ccccc3)c3ccccc3)C(C)=C1C2(C)C.Cc1ccc(S(=O)(=O)O)cc1` [Compound 19, 2′-O-[4-(N,N-dimethyl)amino-2(R,S)-2-trifluoromethylbutyryl]paclitaxel p-toluene sulfonate], in series [3], the “Tumor volume (D0)” value was determined as 134.9 ± 11.4 mm^3, the “Weight change (%) D4” value is listed as −8.9%, the “T/C (%) D22” value is listed as −48% and the “Tumor volume (D22)” value was determined as 57.3 ± 11.4 mm^3. Besides, in series [3], the “Tumor inhibitory percent (%) D22” value is listed as 124%.
In the case of `CO[C@H]1C(=O)[C@]2(C)[C@@H](OC)C[C@H]3OC[C@@]3(OC(C)=O)[C@H]2[C@H](OC(=O)c2ccccc2)[C@]2(O)C[C@H](OC(=O)[C@H](OC(=O)[C@H](F)CCN(C)C)[C@@H](NC(=O)OC(C)(C)C)c3ccccc3)C(C)=C1C2(C)C` [Compound 07, 2′-O-[4-(N,N-dimethyl)amino-2(R)-fluorobutyryl]cabazitaxel hydrochloride], the dissociation percent in series [1] (2 min) is recorded as 49.5%; in series [1] (5 min), 89.6%; in series [1] (10 min), 100%; in series [2] (5 min), 79.2%; in series [2] (20 min), 95.5%; in series [2] (60 min), 100%.
Take `CCN(C)CC[C@@H](F)C(=O)O[C@@H](C(=O)O[C@H]1C[C@@]2(O)[C@@H](OC(=O)c3ccccc3)[C@@H]3[C@]4(OC(C)=O)CO[C@@H]4C[C@H](O)[C@@]3(C)C(=O)[C@H](OC(C)=O)C(=C1C)C2(C)C)[C@@H](NC(=O)c1ccccc1)c1ccccc1.CS(=O)(=O)O` [Compound 16, 2′-O-[4-(N-methyl-N-ethyl)amino-2(R)-fluorobutyryl]paclitaxel methanesulfonate]: in series [3], the “Tumor volume (D0)” value amounted to 133.6 ± 9.4 mm^3, the “Weight change (%) D4” value is reported as −7.0%, the “T/C (%) D22” value is given as −53% and the “Tumor volume (D22)” value is 55.7 ± 10.6 mm^3. Moreover, in series [3], the “Tumor inhibitory percent (%) D22” value is listed as 137%.
For `COC1C(=O)C2(C)C(OC)CC3OCC3(OC(C)=O)C2C(OC(=O)c2ccccc2)C2(O)CC(OC(=O)C(OC(=O)C(CCN)C(F)F)C(NC(=O)OC(C)(C)C)c3ccccc3)C(C)=C1C2(C)C.O=S(=O)([O-])O.[Na+]` [Compound 10, 2′-O-[4-amino-2(R)-difluoromethylbutyryl]cabazitaxel sodium bisulfate salt], the dissociation percent is recorded as 45.2% in series [1] (2 min); 86.5% in series [1] (5 min); 96.8% in series [1] (10 min); 38.1% in series [2] (5 min); 63.2% in series [2] (20 min); 80.3% in series [2] (60 min).
